From ChEMBL document CHEMBL2429744, “Anticancer activities of an antimicrobial peptide derivative of Ixosin-B amide” (Bioorg Med Chem Lett, 2013) come the findings set out here.

pIC50: −log10 of the molar value. The source made the active and inactive calls. The rule behind the calls is not given here. Peptide text beside a SMILES is read from it.

Data set [1] deals with MCF7. Description: Antimigratory activity against human MCF7 cells assessed as inhibition of wound-healing activity at 5 uM after 48 hrs by phase contrast microscopic analysis relative to untreated control. It counts as functional.
In data set [2] the test system is MCF7. In words: Antiproliferative activity against human MCF7 cells assessed as cell viability at 100 uM after 48 hrs by MTT assay. In kind it is functional, cell-based. Background: Tetrazolium assays rely on reduction of a dye to a coloured formazan, in cell work by metabolically active cells.
Data set [3] concerns MCF7. In words: Induction of morphological changes in human MCF7 cells at 1 uM after 24 to 48 hrs by confocal microscopic analysis relative to untreated control. In kind it is functional, cell-based.
Data set [4] deals with MCF7. Description: Antiproliferative activity against human MCF7 cells assessed as cell viability after 48 hrs by MTT assay. Conditions: MCF7, 48 h. It counts as functional, cell-based.
The subject of data set [5] is MCF7. In words: Induction of morphological changes in human MCF7 cells assessed as cell shrinkage at 5 uM after 24 to 48 hrs by confocal microscopic analysis relative to untreated control. In kind it is functional, cell-based.
The subject of data set [6] is MCF7. Description: Induction of cortical alpha-tubulin structural changes in human MCF7 cells at 25 uM after 24 to 48 hrs using AlexaFluor 488 and TRITC staining by confocal microscopic analysis relative to untreated control. In kind it is functional, cell-based.
In data set [7] the test system is MCF7. Description: Induction of alpha-tubulin mislocalization in human MCF7 cells assessed as appearance of aggregated protein around nucleus at 5 uM after 24 to 48 hrs by confocal microscopic analysis relative to untreated control. It counts as functional, cell-based.
Data set [8] relates to MCF7. In words: Ratio of cytotoxic activity to antimigratory activity against human MCF7 cells. It counts as functional.
Data set [9] relates to MCF7. Description: Antimigratory activity against human MCF7 cells assessed as inhibition of wound-healing activity at 1 uM after 24 hrs by phase contrast microscopic analysis relative to untreated control. It counts as functional, cell-based.
The subject of data set [10] is MCF7. In words: Induction of cell death in human MCF7 cells at 25 uM after 24 hrs. It counts as cell-based. Particulars: mcf7, 24 h.
For data set [11], the system named is MCF7. Description: Inhibition of F-actin structural changes in human MCF7 cells at 25 uM after 24 to 48 hrs using AlexaFluor 488 and TRITC staining by confocal microscopic analysis. In kind it is functional, cell-based.

In the case of `CC(C)C[C@H](NC(=O)[C@H](CCCNC(=N)N)NC(=O)[C@@H](N)CCCCN)C(=O)N[C@@H](CCCNC(=N)N)C(=O)N[C@@H](CCCNC(=N)N)C(=O)N[C@H](C(=O)N[C@@H](Cc1c[nH]c2ccccc12)C(=O)N[C@@H](CCCNC(=N)N)C(=O)N[C@@H](CCCNC(=N)N)C(=O)N[C@@H](Cc1c[nH]c2ccccc12)C(=O)N[C@@H](CCCNC(=N)N)C(N)=O)C(C)C` (H-KRLRRVWRRWR-NH2), the inhibition result with MCF7 [1] is “inactive”. The outcome in the data set on MCF7 [2] was inactive.
For `CC(C)C[C@H](NC(=O)[C@H](Cc1c[nH]c2ccccc12)NC(=O)[C@@H](N)CCCCN)C(=O)N[C@@H](CCCNC(=N)N)C(=O)N[C@@H](CCCNC(=N)N)C(=O)N[C@H](C(=O)N[C@@H](Cc1c[nH]c2ccccc12)C(=O)N[C@@H](CCCNC(=N)N)C(=O)N[C@@H](Cc1c[nH]c2ccccc12)C(=O)N[C@@H](Cc1c[nH]c2ccccc12)C(=O)N[C@@H](CCCNC(=N)N)C(N)=O)C(C)C` (H-KWLRRVWRWWR-NH2), the outcome in the data set with MCF7 [3] and in the data set on MCF7 [9] was inactive. Further, in the data set with MCF7 [4], the pIC50 is 4.21. Moreover, the outcome in the data set with MCF7 [5] and in the data set on MCF7 [7] was Active. The inhibition result with MCF7 [6] and with MCF7 [11] was “Active” throughout. Further, the Ratio in the data set with MCF7 [8] is on record as 10. Further, the Activity result in the data set with MCF7 [10] is “Toxic”. Further, in the data set with MCF7 [1] (MCF7, 48 h), the inhibition at 5 µM was found to be 40%.

The inhibition is the drop in the measured response relative to a control, in per cent. By pIC50 is commonly meant −log10 of the IC50, conventionally taken in molar units.
